Reference: ChEMBL document CHEMBL2010767, “Agonists for the Chemokine Receptor CXCR4” (ACS Med Chem Lett, 2011)
Calls of active or inactive are those of the source. The rule behind the calls is not given here.

Tests used:
[1] = biological target: T1, C-X-C chemokine receptor type 4 (Homo sapiens, UniProt P61073); test: Displacement of [125I]-SDF-1alpha from human CXCR4 receptor expressed in HEK293 cells after 1 hr by gamma counting; format: cell-based
[2] = biological target: T1, C-X-C chemokine receptor type 4; test: Agonist activity at CXCR4 receptor in human REH cells assessed as induction of chemotactic migration after 3 hrs; format: functional, cell-based

T1 sequence (P61073 whole entry): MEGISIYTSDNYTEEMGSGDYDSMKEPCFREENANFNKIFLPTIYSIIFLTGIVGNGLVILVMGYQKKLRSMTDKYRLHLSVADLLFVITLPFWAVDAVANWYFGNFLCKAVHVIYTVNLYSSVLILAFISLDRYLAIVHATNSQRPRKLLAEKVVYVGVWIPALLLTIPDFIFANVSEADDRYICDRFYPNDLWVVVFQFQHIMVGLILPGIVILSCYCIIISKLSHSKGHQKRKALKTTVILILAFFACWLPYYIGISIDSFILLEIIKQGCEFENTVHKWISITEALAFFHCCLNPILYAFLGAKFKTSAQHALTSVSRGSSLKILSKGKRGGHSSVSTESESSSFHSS

| Compound | IC50 [1] | Activity [2] |
| --- | --- | --- |
| CC(C)C[C@H](NC(=O)[C@H](CO)NC(=O)[C@@H](NC(=O)[C@@H]1CCCN1C(=O)[C@@H](N)CCCCN)C(C)C)C(=O)N[C@@H](CO)C(=O)N[C@@H](Cc1ccc(O)cc1)C(=O)N[C@@H](CCCNC(=N)N)C(=O)NCCCC[C@H](NC(=O)[C@@H]1CSSC[C@H](NC(=O)[C@H](Cc2ccc3ccccc3c2)NC(=O)[C@H](CCCNC(=N)N)NC(=O)[C@@H](N)CCCNC(=N)N)C(=O)N[C@@H](Cc2ccc(O)cc2)C(=O)N[C@@H](CCCNC(=N)N)C(=O)N[C@@H](CCCCN)C(=O)N[C@H](CCCCN)C(=O)N2CCC[C@H]2C(=O)N[C@@H](Cc2ccc(O)cc2)C(=O)N[C@@H](CCCNC(=N)N)C(=O)N[C@@H](CCCNC(=N)N)C(=O)C1)C(=O)O | 16.5 nM | inactive |
| CC(C)C[C@H](NC(=O)[C@H](CO)NC(=O)[C@@H](NC(=O)[C@@H]1CCCN1C(=O)[C@@H](N)CCCCN)C(C)C)C(=O)N[C@@H](CO)C(=O)N[C@@H](Cc1ccc(O)cc1)C(=O)N[C@@H](CCCN=C(N)N)C(=O)NCCCC[C@H](NC(=O)[C@@H]1CSSC[C@H](NC(=O)[C@H](Cc2ccc3ccccc3c2)NC(=O)[C@H](CCCN=C(N)N)NC(=O)[C@@H](N)CCCN=C(N)N)C(=O)N[C@@H](Cc2ccc(O)cc2)C(=O)N[C@@H](CCCN=C(N)N)C(=O)N[C@@H](CCCCN)C(=O)N[C@H](CCCCN)C(=O)N2CCC[C@H]2C(=O)N[C@@H](Cc2ccc(O)cc2)C(=O)N[C@@H](CCCN=C(N)N)C(=O)N[C@@H](CCCNC(N)=O)C(=O)C1)C(=O)O | 21.7 nM | – |
| CC(C)C[C@H](NC(=O)[C@H](CO)NC(=O)[C@@H](NC(=O)[C@@H]1CCCN1C(=O)[C@@H](N)CCCCN)C(C)C)C(=O)N[C@@H](CO)C(=O)NCCCC[C@H](NC(=O)[C@@H]1CSSC[C@H](NC(=O)[C@H](Cc2ccc3ccccc3c2)NC(=O)[C@H](CCCNC(=N)N)NC(=O)[C@@H](N)CCCNC(=N)N)C(=O)N[C@@H](Cc2ccc(O)cc2)C(=O)N[C@@H](CCCNC(=N)N)C(=O)N[C@@H](CCCCN)C(=O)N[C@H](CCCCN)C(=O)N2CCC[C@H]2C(=O)N[C@@H](Cc2ccc(O)cc2)C(=O)N[C@@H](CCCNC(=N)N)C(=O)N[C@@H](CCCNC(=N)N)C(=O)C1)C(=O)O | 28.3 nM | inactive |
| CC(C)C[C@H](NC(=O)[C@H](CO)NC(=O)[C@@H](NC(=O)[C@@H]1CCCN1C(=O)[C@@H](N)CCCCN)C(C)C)C(=O)N[C@@H](CO)C(=O)N[C@@H](Cc1ccc(O)cc1)C(=O)N[C@@H](CCCN=C(N)N)C(=O)NCCCC[C@@H]1NC(=O)[C@H](CCCN=C(N)N)NC(=O)[C@H](Cc2ccc(O)cc2)NC(=O)[C@@H]2CCCN2C(=O)[C@@H](CCCCN)NC(=O)[C@H](CCCCN)NC(=O)[C@H](CCCN=C(N)N)NC(=O)[C@H](Cc2ccc(O)cc2)NC(=O)[C@@H](NC(=O)[C@H](Cc2ccc3ccccc3c2)NC(=O)[C@H](CCCN=C(N)N)NC(=O)[C@@H](N)CCCN=C(N)N)CSSC[C@@H](C(=O)N[C@@H](CCCN=C(N)N)C(=O)O)CC1=O | 1.36 nM | – |
| CC(C)C[C@H](NC(=O)[C@H](CO)NC(=O)[C@@H](NC(=O)[C@@H]1CCCN1C(=O)[C@@H](N)CCCCN)C(C)C)C(=O)N[C@@H](CO)C(=O)NCCCC[C@H](NC(=O)[C@@H]1CSSC[C@H](NC(=O)[C@H](Cc2ccc3ccccc3c2)NC(=O)[C@H](CCCNC(=N)N)NC(=O)[C@@H](N)CCCNC(=N)N)C(=O)N[C@@H](Cc2ccc(O)cc2)C(=O)N[C@@H](CCCNC(=N)N)C(=O)N[C@@H](CCCCN)C(=O)N[C@H](CCCCN)C(=O)N2CCC[C@H]2C(=O)N[C@@H](Cc2ccc(O)cc2)C(=O)N[C@@H](CCCNC(=N)N)C(=O)N[C@@H](CCCNC(N)=O)C(=O)C1)C(=O)O | – | inactive |
| CC(C)C[C@H](NC(=O)[C@H](CO)NC(=O)[C@@H](NC(=O)[C@@H]1CCCN1C(=O)[C@@H](N)CCCCN)C(C)C)C(=O)N[C@@H](CO)C(=O)N[C@@H](Cc1ccc(O)cc1)C(=O)N[C@@H](CCCNC(=N)N)C(=O)N[C@@H](CO)C(=O)NCCCC[C@H](NC(=O)[C@@H]1CSSC[C@H](NC(=O)[C@H](Cc2ccc3ccccc3c2)NC(=O)[C@H](CCCNC(=N)N)NC(=O)[C@@H](N)CCCNC(=N)N)C(=O)N[C@@H](Cc2ccc(O)cc2)C(=O)N[C@@H](CCCNC(=N)N)C(=O)N[C@@H](CCCCN)C(=O)N[C@H](CCCCN)C(=O)N2CCC[C@H]2C(=O)N[C@@H](Cc2ccc(O)cc2)C(=O)N[C@@H](CCCNC(=N)N)C(=O)N[C@@H](CCCNC(N)=O)C(=O)C1)C(=O)O | 21.2 nM | inactive |
| CC(C)C[C@H](NC(=O)[C@H](CO)NC(=O)[C@@H](NC(=O)[C@@H]1CCCN1C(=O)[C@@H](N)CCCCN)C(C)C)C(=O)N[C@@H](CO)C(=O)N[C@@H](Cc1ccc(O)cc1)C(=O)N[C@@H](CCCN=C(N)N)C(=O)N[C@@H](CO)C(=O)N[C@@H](C)C(=O)NCCCC[C@H](NC(=O)[C@@H]1CSSC[C@H](NC(=O)[C@H](Cc2ccc3ccccc3c2)NC(=O)[C@H](CCCN=C(N)N)NC(=O)[C@@H](N)CCCN=C(N)N)C(=O)N[C@@H](Cc2ccc(O)cc2)C(=O)N[C@@H](CCCN=C(N)N)C(=O)N[C@@H](CCCCN)C(=O)N[C@H](CCCCN)C(=O)N2CCC[C@H]2C(=O)N[C@@H](Cc2ccc(O)cc2)C(=O)N[C@@H](CCCN=C(N)N)C(=O)N[C@@H](CCCN=C(N)N)C(=O)C1)C(=O)O | 24.9 nM | – |
| NCCCC[C@@H]1NC(=O)[C@H](CCCN=C(N)N)NC(=O)[C@H](Cc2ccc(O)cc2)NC(=O)[C@@H](NC(=O)[C@H](Cc2ccc3ccccc3c2)NC(=O)[C@H](CCCN=C(N)N)NC(=O)[C@@H](N)CCCN=C(N)N)CSSC[C@@H](C(=O)N[C@@H](CCCN=C(N)N)C(=O)O)CC(=O)[C@H](CCCNC(N)=O)NC(=O)[C@H](CCCN=C(N)N)NC(=O)[C@H](Cc2ccc(O)cc2)NC(=O)[C@@H]2CCCN2C(=O)[C@@H](CCCCN)NC1=O | 1.56 nM | – |
| CC(C)C[C@H](NC(=O)[C@H](CO)NC(=O)[C@@H](NC(=O)[C@@H]1CCCN1C(=O)[C@@H](N)CCCCN)C(C)C)C(=O)N[C@@H](CO)C(=O)NCCCC[C@H](NC(=O)[C@@H]1CSSC[C@H](NC(=O)[C@H](Cc2ccc3ccccc3c2)NC(=O)[C@H](CCCN=C(N)N)NC(=O)[C@@H](N)CCCN=C(N)N)C(=O)N[C@@H](Cc2ccc(O)cc2)C(=O)N[C@@H](CCCN=C(N)N)C(=O)N[C@@H](CCCCN)C(=O)N[C@H](CCCCN)C(=O)N2CCC[C@H]2C(=O)N[C@@H](Cc2ccc(O)cc2)C(=O)N[C@@H](CCCN=C(N)N)C(=O)N[C@@H](CCCNC(N)=O)C(=O)C1)C(=O)O | 62 nM | – |
| CC(C)C[C@H](NC(=O)[C@H](CO)NC(=O)[C@@H](NC(=O)[C@@H]1CCCN1C(=O)[C@@H](N)CCCCN)C(C)C)C(=O)N[C@@H](CO)C(=O)N[C@@H](Cc1ccc(O)cc1)C(=O)N[C@@H](CCCN=C(N)N)C(=O)N[C@@H](CO)C(=O)NCCCC[C@H](NC(=O)[C@@H]1CSSC[C@H](NC(=O)[C@H](Cc2ccc3ccccc3c2)NC(=O)[C@H](CCCN=C(N)N)NC(=O)[C@@H](N)CCCN=C(N)N)C(=O)N[C@@H](Cc2ccc(O)cc2)C(=O)N[C@@H](CCCN=C(N)N)C(=O)N[C@@H](CCCCN)C(=O)N[C@H](CCCCN)C(=O)N2CCC[C@H]2C(=O)N[C@@H](Cc2ccc(O)cc2)C(=O)N[C@@H](CCCN=C(N)N)C(=O)N[C@@H](CCCN=C(N)N)C(=O)C1)C(=O)O | 5.67 nM | – |
